Data reported in patent publication US20250025500A1, “PHOSPHATASE INHIBITORS AS NK CELLS MODULATORS FOR THE TREATMENT OF CANCER” (Kanyr Pharma Inc., priority 2021, published 2025).

Key:
[1] = tested on: NK-92 cells; experiment: Surface receptor expression on NK-92 (flow cytometry); format: cell-based, Human
[2] = tested on: NK-92 cells; experiment: Multi-response analysis: cytokine production with degranulation in NK-92; format: cell-based, Human; settings: 30 μM three days, tumor cell or PMA and ionomycin stimulation
Protocol: NK-92 cells pre-treated with L598 (30 μM) or vehicle control were stimulated with K-562 tumor target cells [effector: target (E:T) at 1:1] or PMA/lonomycin (1 μg/mL each) or no-stimulation control with K-562 complete media, respectively. Anti-CD107a or LAMP-1 antibody (1:100, PE/Cy7 conjugated, clone H4A3, from BioLegend®) was added to cells at the start of degranulation assay. Golgi stop (containing Monensin, 1 μM) and Golgi plug (containing Brefeldin A, 4 μg/mL) were added to cells one hour after degranulation assay started and were kept until the end of the 6-hour-degranulation assay. Intracellular staining of GrB (1:40, PE conjugated, clone QA18A28, from BioLegend®) and PRF (1:40, FITC conjugated, clone B-D48, from BioLegend®) were performed with the Fixation/Permeabilization Solution Kit (BD® Biosciences) according to the manufacture's protocol. Cells were stained with fixable viability dye (1:2000) for 20 mins on ice and in dark, and blocked with FcBlock (1:20, diluted in 1× Perm/Wash buffer, Human truStain FcX from BioLegend®) for 5 mins at room temperature and in dark before intracellular staining. Cell gating and percentage of population quantification was based on no-stimulation control. […] Intracellular cytolytic granule contents GrA, GrB and PRF were measured as mentioned previously.

[3] = tested on: cord blood isolated NK cells; experiment: Surface receptor expression on cord blood NK cells (flow cytometry); format: cell-based, Human; settings: 30 μM, with or without K-562 stimulation E:T 1:1, three hours
Source text: Human cord blood derived NK cells (CB-NK) were kindly provided by Dr. Linda Peltier's Cellular Therapy Laboratory at McGill University Health Center (Montreal, Canada) in frozen format and were stored in liquid nitrogen tank until usage. Briefly, 1×10^7 cells were resuspended in frozen medium consisting of ImmunoCult T Cell Medium supplemented with 10% DMSO final concentration. Frozen CB-NK cells were thawed, and ex vivo expanded at Goodman Cancer Research Center (GCRC) for five days in xeno-free ImmunoCult T cell expansion media supplemented with 10% PlasmaLyte A and freshly with a cytokine cocktail of IL-2 (5 ng/mL), IL-7 (5 ng/mL), IL-15 (5 ng/mL), SCF (15 ng/mL) and FLT3/L (10 ng/mL) every two days. […] On day three, inhibitor L598 and fresh cytokine cocktails were supplemented to the cell media. NK cell population purity and immunophenotype profiling of major activating and inhibitory receptors were assessed upon receiving shipments, after ex vivo expansion for five days and after anti-tumor cytolytic assay.

[4] = tested on: SMAD2, SOCS1, SOCS3 in NK-92 cells; experiment: Western blot of phospho-SMAD2, SOCS1 and SOCS3 in NK-92; format: cell-based, Human; settings: with inhibitor treatment
Protocol: Total cell lysate was prepared with modified RIPA buffer (1M Tris-HCl (pH 7.5), 5M NaCl, 0.25% sodium deoxycholate, 10% NP-40 and 10 mM sodium fluoride) supplemented with ethylenediaminetetraacetic acid (EDTA)-free protease inhibitor (Roche™) and 2 mM sodium orthovanadate (Sigma-Aldrich™). Protein levels were quantified by bicinchoninic acid (BCA) assay. Protein lysate was separated by 10% SDS-PAGE and Western analysis was performed using primary antibodies listed in the tables below followed with horseradish peroxidase (HRP, 1:10,000, Jackson ImmunoResearch™) conjugated secondary antibodies.

[5] = tested on: PTPN1 and PTPN2 catalytic domain; settings: Montalibet J, et al., J Biol Chem 2006; cited from earlier work
[6] = tested on: NK-92 cells against Reh cells; experiment: NK-92 cytolytic assay against NK resistant Reh target cells; format: cell-based, Human; settings: 30 μM three days, IL-2 100 IU/mL, 3 h assay
Protocol: Human NK cell line NK-92 was purchased from American Type Culture Collection (ATCC) and cultured in α-MEM Essential Medium (no ribonucleoside and deoxyribonucleoside) supplemented with 0.2 mM Myo-inositol, 0.02 mM Folic Acid, 0.1 mM β-mercaptoethanol, 1% of Non-essential Amino Acids, 1×L-Glutamax, 1% of Penicillin/Streptomycin, 12.5% of heat-inactivated Horse, and 12.5% of heat-inactivated Characterized Fetal Bovine Serum or FBS. The media was supplemented freshly with 200 IU/mL of IL-2 upon cell thawing for one passage and 100 IU/mL of IL-2 for cell expansion. Human tumor cell lines K-562 and Reh were purchased from ATCC and were cultured in RPM11640 Medium supplemented with 1% of Penicillin/Streptomycin and 10% of heat inactivated FBS. HEK293T/17 cells and HCT116 cells were cultured in Dulbecco's Modified Eagle's Medium (DMEM) High Glucose Medium supplemented with 1% of Penicillin/Streptomycin and 10% of FBS. All cell lines were maintained in 5% CO2, 37° C. incubator, except that NK-92 were maintained in 6.5% CO2 incubator at 37° C. […]
NK-92 anti-tumor cytolysis function was assessed by flow cytometry-based analysis. […] Flow cytometry sample acquisition was performed with BDO LSRFortessa™ with a UV laser at Flow Cytometry Core Facility, McGill University, and data was analyzed with FlowJo™ 10.7.1 and summarized with Prism™ 9 (GraphPad™). […]

7-bromo-6-phosphono(difluoro-methyl)-3-napthalenonitrile [L598]
IL-2Rα (CD25) expression ([1]; steady state, 10 μM): upregulated | IL-2Rβ (CD122) expression ([1]; steady state, 10 μM): remained stable | CD69 and activating receptors NKp30, NKp46, NKG2D on NK-92 ([1]; with or without K-562 stimulation): upregulation | percentages of CD107a+, IFN-γ+ and CD107a+, TNF-α+ cells [2]: larger percentages | CD69 and activating receptor expression on cord blood NK cells [3]: upregulation | TGF-β1 activated phosphorylation of SMAD2 [4]: did not change significantly | expression of SOCS1 and SOCS3 [4]: did not change | binding specificity for PTPN1 and PTPN2 over other protein tyrosine phosphatases [5]: binds specifically to their catalytic domain but no other protein tyrosine phosphatases | NK-92 cytolysis towards NK resistant target cells Reh [6]: did not improve
